Biological target: T1, TtCS (citrate synthase from Thermus thermophilus HB8) (Thermus thermophilus, UniProt Q5SIM6)
T1 construct: gene TTHA1343; recombinant, E. coli BL21(DE3) pET-3a; no tag stated; 377 residues, Mr 42,304 per subunit; homodimer
T1 sequence (Q5SIM6 1-377): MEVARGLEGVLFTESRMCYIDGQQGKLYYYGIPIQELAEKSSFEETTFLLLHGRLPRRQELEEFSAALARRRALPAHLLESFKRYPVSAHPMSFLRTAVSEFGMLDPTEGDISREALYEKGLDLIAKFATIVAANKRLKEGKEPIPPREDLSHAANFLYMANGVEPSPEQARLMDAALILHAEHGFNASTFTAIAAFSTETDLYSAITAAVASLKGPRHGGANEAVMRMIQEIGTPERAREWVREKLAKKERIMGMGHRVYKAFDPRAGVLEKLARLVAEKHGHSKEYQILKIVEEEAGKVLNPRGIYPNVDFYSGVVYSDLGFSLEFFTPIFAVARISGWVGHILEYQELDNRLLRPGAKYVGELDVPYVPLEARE
Assay: X-ray crystal structure, […] Å, co-crystallised
Type: binding
Conditions: closed forms (fully and partially closed)

| SMILES | X-ray crystal structure, 2.3 Å, co-crystallised (ternary complex with citrate, same crystallisation, active site just above citrate) | X-ray crystal structure, 2.3 Å, co-crystallised (ternary complex with CoA, 10 mM Na-citrate, 10 mM CoA, 100 mM KCl, then 1.5 M lithium sulfate, 100 mM Na-citrate pH 5.8, 20°C, active site) |
| --- | --- | --- |
| CC(C)(COP(=O)(O)OP(=O)(O)OC[C@H]1O[C@@H](n2cnc3c(N)ncnc32)[C@H](O)[C@@H]1OP(=O)(O)O)[C@@H](O)C(=O)NCCC(=O)NCCS [CoA] | CoA is bound at the upper part of the active site just above the citrate-binding site |  |
| O=C(O)CC(O)(CC(=O)O)C(=O)O [citrate] |  | Citrate is bound deep in the cleft of the active site by hydrogen bonds |

From publication PMC4736845, “Structural comparison between the open and closed forms of citrate synthase from Thermus thermophilus HB8” (Biophysics and Physicobiology, 2015)
